For 26 compounds, IC50 results are on record in US20260209214A1, “LSD1 MODULATORS” (RECURSION PHARMACEUTICALS, INC., priority 2022, published 2026).

This test addresses Recombinant human LSD1 (Homo sapiens, UniProt O60341). Description: LSD1 inhibition assay (HTRF LSD1 Histone H3K4 mono-demethylation assay, me1->me0). It is filed as biochemical. To be noted: 20 nM recombinant human LSD1, 95 nM H3K4(me1) biotinylated peptide, 15 min preincubation, 60 min at 25° C., read-out: LSD1 inhibition IC50 (nM range). The procedure, abridged:
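Recombinant human LSD1 (20 nM) pre-incubated 15 min with 10 semi-log compound doses, then 95 nM biotinylated H3K4me1 peptide for 60 min at 25 °C in pH 8.5 Tris/NaCl buffer with 10 μM FAD, 1 mM DTT. HTRF me0-antibody read after 90 min; IC50 from 4-parameter fit.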

SMILES strings stand for the structures.

`Cc1ncc(-c2c(CC3CNCCO3)cccc2-c2ccc(C#N)c(F)c2)o1` (centres unmarked) [Example 69, 3-fluoro-2′-(2-methyl-1,3-oxazol-5-yl)-3′-[(morpholin-2-yl)methyl]-[1,1′-biphenyl]-4-carbonitrile]: the IC50 was in the range of 100 to 1000 nM.

For the compound `N#Cc1ccc(-c2cccc(C[C@@H]3CNCCO3)c2-c2ccno2)cc1` (single isomer, unassigned) [Example 7], the IC50 lay in the range of 10 to 25 nM. For `N#Cc1ccc(-c2cccc(CN3CCCCC34CCCNC4)c2Cl)cc1F` (centres unmarked) [Example 281, 2'-chloro-3'-({1,8-diazaspiro[5.5]undecan-1-yl}methyl)-3-fluoro-[1,1'-biphenyl]-4-carbonitrile], the IC50 is greater than 1000 nM. The value for `N#Cc1ccc(-c2cccc(CN3CC4CNCC3C4)c2Cl)cc1F` (centres unmarked) [Example 238, 2'-chloro-3'-({3,6-diazabicyclo[3.2.1]octan-6-yl}methyl)-3-fluoro-[1,1'-biphenyl]-4-carbonitrile] was 100 to 1000 nM; that for `CC1(c2c(CN3[C@@H]4CC[C@H]3[C@@H](N)C4)cccc2-c2ccc(C#N)c(F)c2)CC1` (racemic) [Example 307, 3'-{[(1S,2S,4R)-2-amino-7-azabicyclo[2.2.1]heptan-7-yl]methyl}-3-fluoro-2'-(1-methylcyclopropyl)-[1,1'-biphenyl]-4-carbonitrile] was 100 to 1000 nM; that for `N#Cc1ccc(-c2cc(CC3CNCCO3)ccc2N2CCC(C3CCCO3)CC2)cc1F` (centres unmarked) [Example 73, 3-fluoro-5′-[(morpholin-2-yl)methyl]-2′-[4-(oxolan-2-yl)piperidin-1-yl]-[1,1′-biphenyl]-4-carbonitrile] was 25 to 100 nM. The same measure for `N#Cc1ccc(-c2cccc(CN3CC4CNC(C4)C3)c2Cl)cc1F` (centres unmarked) [Example 284, 2'-chloro-3'-({3,6-diazabicyclo[3.2.1]octan-3-yl}methyl)-3-fluoro-[1,1'-biphenyl]-4-carbonitrile]: 100 to 1000 nM.

Turning to `CC1(O)CC2(CN(c3ccc(CC4CNCCO4)cc3-c3ccc(C#N)c(F)c3)C2)C1` (centres unmarked) [Example 165, 3-fluoro-2′-{6-hydroxy-6-methyl-2-azaspiro[3.3]heptan-2-yl}-5′-[(morpholin-2-yl)methyl]-[1,1′-biphenyl]-4-carbonitrile], the IC50 is 100 to 1000 nM. The same measure for `Cn1cc2cc(-c3ccc(CN4C[C@]5(N)CC[C@H]4C5)cc3-c3ccc(C#N)c(F)c3)ccc2n1` [Example 264, 5'-{[(1S,4S)-4-amino-2-azabicyclo[2.2.1]heptan-2-yl]methyl}-3-fluoro-2'-(2-methyl-2H-indazol-5-yl)-[1,1'-biphenyl]-4-carbonitrile]: 10 to 25 nM; for `N#Cc1ccc(-c2cc(CC3CNCCO3)ccc2N2CCC2)cc1Cl` (centres unmarked) [Example 134, 4-[2-(azetidin-1-yl)-5-(morpholin-2-ylmethyl)phenyl]-2-chloro-benzonitrile]: greater than 1000 nM. The value for `COCc1cc(-c2ccc(CC3CNCCO3)cc2-c2ccc(C#N)c(F)c2)on1` (centres unmarked) [Example 129, 3-fluoro-2′-[3-(methoxymethyl)-1,2-oxazol-5-yl]-5′-[(morpholin-2-yl)methyl]-[1,1′-biphenyl]-4-carbonitrile] was 100 to 1000 nM; that for `N#Cc1ccc(-c2cc(CC3CNCCO3)ccc2N2CCC(c3ncccn3)CC2)cc1F` (centres unmarked) [Example 59, 3-fluoro-5′-[(morpholin-2-yl)methyl]-2′-[4-(pyrimidin-2-yl)piperidin-1-yl]-[1,1′-biphenyl]-4-carbonitrile] was 100 to 1000 nM.

For `N#Cc1ccc(-c2cc(F)cc(CC3CNCCO3)c2-c2cnco2)cc1F` (centres unmarked) [Example 49, 3,5′-difluoro-3′-[(morpholin-2-yl)methyl]-2′-(1,3-oxazol-5-yl)-[1,1′-biphenyl]-4-carbonitrile], the IC50 lay in the range of 25 to 100 nM. Consider `N#Cc1ccc(-c2cccc(CN3C[C@H](N)C[C@H](C(F)(F)F)C3)c2Cl)cc1F` [Example 326, 3'-{[(3R,5S)-3-amino-5-(trifluoromethyl)piperidin-1-yl]methyl}-2'-chloro-3-fluoro-[1,1'-biphenyl]-4-carbonitrile], for which the half-maximal inhibitory concentration (IC50) is greater than 1000 nM. The same measure for `N#Cc1ccc(-c2cc(CN3[C@@H]4CC[C@H]3[C@@H](N)C4)ccc2N2CCC3(CCCO3)CC2)cc1F` (racemic) [Example 224, 5'-{[(1S,2S,4R)-2-amino-7-azabicyclo[2.2.1]heptan-7-yl]methyl}-3-fluoro-2'-{1-oxa-8-azaspiro [4.5]decan-8-yl}-[1,1'-biphenyl]-4-carbonitrile]: 10 to 25 nM. As to `Cn1nc2ccc(-c3ccc(CN4C[C@@]5(N)CC[C@@H]4C5)cc3-c3ccc(C#N)c(F)c3)cc2c1Cl` [Example 233, 5'-{[(1R,4R)-4-amino-2-azabicyclo[2.2.1]heptan-2-yl]methyl}-2'-(3-chloro-2-methyl-2H-indazol-5-yl)-3-fluoro-[1,1'-biphenyl]-4-carbonitrile], the IC50 is 10 to 25 nM.

With `N#Cc1ccc(-c2cccc(C[C@@H]3CNCCO3)c2C2=CCOC2)cc1F` (single isomer, unassigned) [Example 8], the IC50 is less than 10 nM. Take `COc1cn(-c2ccc(CC3CNCCO3)cc2-c2ccc(C#N)c(F)c2)nc1C` (centres unmarked) [Example 77, 3-fluoro-2′-(4-methoxy-3-methyl-1H-pyrazol-1-yl)-5′-[(morpholin-2-yl)methyl]-[1,1′-biphenyl]-4-carbonitrile]: the IC50 is 100 to 1000 nM. On to `CN[C@H]1CCCN(Cc2cccc(-c3ccc(C#N)c(F)c3)c2C2CC2)CC1` [Example 215, 2'-cyclopropyl-3-fluoro-3'-{[(4S)-4-(methylamino)azepan-1-yl]methyl}-[1,1'-biphenyl]-4-carbonitrile], for which the IC50 fell in the range of 25 to 100 nM. As for `N#Cc1ccc(-c2cccc(C[C@@H]3CNCCO3)c2-c2scnc2Cl)cc1F` (single isomer, unassigned) [Example 37], the IC50 fell in the range of 10 to 25 nM. As to `N#Cc1ccc(-c2cccc(CN3CC4(CCNCC4)C3)c2Cl)cc1F` [Example 288, 2'-chloro-3'-({2,7-diazaspiro[3.5]nonan-2-yl}methyl)-3-fluoro-[1,1'-biphenyl]-4-carbonitrile], the IC50 fell in the range of 100 to 1000 nM. The same measure for `CC(C)C1(O)CCN(c2ccc(CC3CNCCO3)cc2-c2ccc(C#N)c(F)c2)C1` (centres unmarked) [Example 66, 3-fluoro-2′-[3-hydroxy-3-(propan-2-yl)pyrrolidin-1-yl]-5′-[(morpholin-2-yl)methyl]-[1,1′-biphenyl]-4-carbonitrile]: 100 to 1000 nM. The value for `COc1ccc(CC2CNCCO2)cc1-c1ccc(C#N)c(F)c1` (centres unmarked) [Example 142, 3-fluoro-2′-methoxy-5′-[(morpholin-2-yl)methyl]-[1,1′-biphenyl]-4-carbonitrile] was greater than 1000 nM. The value for `Cn1cc2cc(-c3ccc(CC4CNCCO4)cc3-c3ccc(C#N)c(F)c3)ccc2n1` (centres unmarked) [Compound 58] was 100 to 1000 nM; that for `Cc1cc(CNCC2CCCNC2)c(Cl)c(-c2ccc(C#N)c(F)c2)c1` (centres unmarked) [Example 348, 2'-chloro-3-fluoro-5'-methyl-3'-({[(piperidin-3-yl)methyl]amino}methyl)-[1,1'-biphenyl]-4-carbonitrile] was 100 to 1000 nM. Turning to `N#Cc1ccc(-c2cc(CC3CN4CCC4CO3)ccc2N2CCC2)cc1F` (centres unmarked) [Example 160, 2′-(azetidin-1-yl)-3-fluoro-5′-({4-oxa-1-azabicyclo[4.2.0]octan-3-yl}methyl)-[1,1′-biphenyl]-4-carbonitrile], the IC50 is greater than 1000 nM.

As usually defined, the IC50 is the concentration at which inhibition is half-maximal.
